Experiments:
Canis familiaris [1] = assay: Diuretic effect in mongrel dog assessed as urinary excretion of Na+ at 0.01 mg/kg, po after 3 hrs (reference value: 0.10 +/- 0.02 mequiv/kg); type: functional, Canis lupus familiaris, Urine
Canis familiaris [2] = assay: Diuretic effect in mongrel dog assessed as urinary excretion of Cl- at 0.1 mg/kg, iv after 3 hrs (reference value: 0.08 +/- 0.02 mequiv/kg); type: functional, Canis lupus familiaris, Urine
Canis familiaris [3] = assay: Diuretic effect in mongrel dog assessed as urinary excretion of K+ at 0.25 mg/kg, iv after 3 hrs (reference value: 0.16 +/- 0.01 mequiv/kg); type: functional, Canis lupus familiaris, Urine
Canis familiaris [4] = assay: Diuretic effect in mongrel dog assessed as urinary excretion of water at 0.01 mg/kg, iv after 3 hrs (reference value: 0.93 +/- 0.35 ml/kg)
Canis familiaris [5] = assay: Diuretic effect in mongrel dog assessed as urinary excretion of Cl- at 0.25 mg/kg, iv after 3 hrs (reference value: 0.08 +/- 0.02 mequiv/kg); type: functional, Canis lupus familiaris, Urine
Canis familiaris [6] = assay: Diuretic effect in mongrel dog assessed as urinary excretion of water at 0.1 mg/kg, iv after 3 hrs (reference value: 0.93 +/- 0.35 ml/kg); type: functional, Canis lupus familiaris, Urine
Canis familiaris [7] = assay: Diuretic effect in mongrel dog assessed as urinary excretion of Na+ at 0.1 mg/kg, iv after 3 hrs (reference value: 0.10 +/- 0.02 mequiv/kg); type: functional, Canis lupus familiaris, Urine
Canis familiaris [8] = assay: Diuretic effect in mongrel dog assessed as urinary excretion of water at 0.25 mg/kg, iv after 3 hrs (reference value: 0.93 +/- 0.35 ml/kg); type: functional, Canis lupus familiaris, Urine
Canis familiaris [9] = assay: Diuretic effect in mongrel dog assessed as urinary excretion of K+ at 0.1 mg/kg, iv after 3 hrs (reference value: 0.16 +/- 0.01 mequiv/kg); type: functional, Canis lupus familiaris, Urine
Canis familiaris [10] = assay: Diuretic effect in mongrel dog assessed as urinary excretion of Na+ at 0.25 mg/kg, iv after 3 hrs (reference value: 0.10 +/- 0.02 mequiv/kg); type: functional, Canis lupus familiaris, Urine
Canis familiaris [11] = assay: Diuretic effect in mongrel dog assessed as urinary excretion of Cl- at 0.01 mg/kg, po after 3 hrs (reference value: 0.08 +/- 0.02 mequiv/kg); type: functional, Canis lupus familiaris, Urine
Canis familiaris [12] = assay: Diuretic effect in mongrel dog assessed as urinary excretion of K+ at 0.01 mg/kg, po after 3 hrs (reference value: 0.16 +/- 0.01 mequiv/kg); type: functional, Canis lupus familiaris, Urine
Canis familiaris [13] = assay: Diuretic effect in mongrel dog assessed as urinary excretion of water at 1 mg/kg, iv after 3 hrs (reference value: 0.93 +/- 0.35 ml/kg); type: functional, Canis lupus familiaris, Urine
Canis familiaris [14] = assay: Diuretic effect in mongrel dog assessed as urinary excretion of water at 5 mg/kg, iv after 3 hrs (reference value: 0.93 +/- 0.35 ml/kg); type: functional, Canis lupus familiaris, Urine
Canis familiaris [15] = assay: Diuretic effect in mongrel dog assessed as urinary excretion of water at 0.25 mg/kg, po after 6 hrs (reference value: 1.73 +/- 0.46 ml/kg); type: functional, Canis lupus familiaris, Urine
Canis familiaris [16] = assay: Diuretic effect in mongrel dog assessed as urinary excretion of Cl- at 0.25 mg/kg, iv after 3 hrs (reference value: 0.08 +/- 0.02 mequiv/kg)
Canis familiaris [17] = assay: Diuretic effect in mongrel dog assessed as urinary excretion of Na+ at 0.25 mg/kg, po after 6 hrs (reference value: 0.27 +/- 0.09 mequiv/kg); type: functional, Canis lupus familiaris, Urine
Canis familiaris [18] = assay: Diuretic effect in mongrel dog assessed as urinary excretion of Na+ at 5 mg/kg, po after 3 hrs (reference value: 0.10 +/- 0.02 mequiv/kg); type: functional, Canis lupus familiaris, Urine
Canis familiaris [19] = assay: Diuretic effect in mongrel dog assessed as urinary excretion of Cl- at 5 mg/kg, iv after 3 hrs (reference value: 0.08 +/- 0.02 mequiv/kg); type: functional, Canis lupus familiaris, Urine
Canis familiaris [20] = assay: Diuretic effect in mongrel dog assessed as urinary excretion of Na+ at 1 mg/kg, iv after 3 hrs (reference value: 0.10 +/- 0.02 mequiv/kg); type: functional, Canis lupus familiaris, Urine
Canis familiaris [21] = assay: Diuretic effect in mongrel dog assessed as urinary excretion of Cl- at 5 mg/kg, po after 3 hrs (reference value: 0.08 +/- 0.02 mequiv/kg); type: functional, Canis lupus familiaris, Urine
Canis familiaris [22] = assay: Diuretic effect in mongrel dog assessed as urinary excretion of K+ at 1 mg/kg, po after 3 hrs (reference value: 0.16 +/- 0.01 mequiv/kg); type: functional, Canis lupus familiaris, Urine
Canis familiaris [23] = assay: Diuretic effect in mongrel dog assessed as urinary excretion of Na+ at 1 mg/kg, po after 3 hrs (reference value: 0.10 +/- 0.02 mequiv/kg); type: functional, Canis lupus familiaris, Urine
Canis familiaris [24] = assay: Diuretic effect in mongrel dog assessed as urinary excretion of K+ at 1 mg/kg, po after 6 hrs (reference value: 0.24 +/- 0.03 mequiv/kg); type: functional, Canis lupus familiaris, Urine
Canis familiaris [25] = assay: Diuretic effect in mongrel dog assessed as urinary excretion of Cl- at 1 mg/kg, iv after 3 hrs (reference value: 0.08 +/- 0.02 mequiv/kg); type: functional, Canis lupus familiaris, Urine
Canis familiaris [26] = assay: Diuretic effect in mongrel dog assessed as urinary excretion of K+ at 5 mg/kg, iv after 3 hrs (reference value: 0.16 +/- 0.01 mequiv/kg); type: functional, Canis lupus familiaris, Urine
Canis familiaris [27] = assay: Diuretic effect in mongrel dog assessed as urinary excretion of water at 1 mg/kg, po after 6 hrs (reference value: 1.73 +/- 0.46 ml/kg); type: functional, Canis lupus familiaris, Urine
Canis familiaris [28] = assay: Diuretic effect in mongrel dog assessed as urinary excretion of Na+ at 1 mg/kg, po after 6 hrs (reference value: 0.27 +/- 0.09 mequiv/kg); type: functional, Canis lupus familiaris, Urine
Canis familiaris [29] = assay: Diuretic effect in mongrel dog assessed as urinary excretion of Na+ at 5 mg/kg, iv after 3 hrs (reference value: 0.10 +/- 0.02 mequiv/kg); type: functional, Canis lupus familiaris, Urine
Canis familiaris [30] = assay: Diuretic effect in mongrel dog assessed as urinary excretion of Cl- at 1 mg/kg, po after 3 hrs (reference value: 0.08 +/- 0.02 mequiv/kg); type: functional, Canis lupus familiaris, Urine
Canis familiaris [31] = assay: Diuretic effect in mongrel dog assessed as urinary excretion of K+ at 0.25 mg/kg, po after 6 hrs (reference value: 0.24 +/- 0.03 mequiv/kg); type: functional, Canis lupus familiaris, Urine
Canis familiaris [32] = assay: Diuretic effect in mongrel dog assessed as urinary excretion of Cl- at 1 mg/kg, po after 6 hrs (reference value: 0.17 +/- 0.09 mequiv/kg); type: functional, Canis lupus familiaris, Urine
Canis familiaris [33] = assay: Diuretic effect in mongrel dog assessed as urinary excretion of K+ at 5 mg/kg, po after 3 hrs (reference value: 0.16 +/- 0.01 mequiv/kg); type: functional, Canis lupus familiaris, Urine
Canis familiaris [34] = assay: Diuretic effect in mongrel dog assessed as urinary excretion of water at 1 mg/kg, po after 3 hrs (reference value: 0.93 +/- 0.35 ml/kg); type: functional, Canis lupus familiaris, Urine
Canis familiaris [35] = assay: Diuretic effect in mongrel dog assessed as urinary excretion of water at 5 mg/kg, po after 3 hrs (reference value: 0.93 +/- 0.35 ml/kg); type: functional, Canis lupus familiaris, Urine
Canis familiaris [36] = assay: Diuretic effect in mongrel dog assessed as urinary excretion of K+ at 1 mg/kg, iv after 3 hrs (reference value: 0.16 +/- 0.01 mequiv/kg); type: functional, Canis lupus familiaris, Urine
Canis familiaris [37] = assay: Diuretic effect in mongrel dog assessed as urinary excretion of Cl- at 0.25 mg/kg, po after 3 hrs (reference value: 0.08 +/- 0.02 mequiv/kg); type: functional, Canis lupus familiaris, Urine
Canis familiaris [38] = assay: Diuretic effect in mongrel dog assessed as urinary excretion of K+ at 0.25 mg/kg, po after 3 hrs (reference value: 0.16 +/- 0.01 mequiv/kg); type: functional, Canis lupus familiaris, Urine
Canis familiaris [39] = assay: Diuretic effect in mongrel dog assessed as urinary excretion of Na+ at 0.25 mg/kg, po after 3 hrs (reference value: 0.10 +/- 0.02 mequiv/kg); type: functional, Canis lupus familiaris, Urine
Canis familiaris [40] = assay: Diuretic effect in mongrel dog assessed as urinary excretion of Cl- at 1 mg/kg, po after 3 hrs (reference value: 0.08 +/- 0.02 mequiv/kg)
Canis familiaris [41] = assay: Diuretic effect in mongrel dog assessed as urinary excretion of water at 0.25 mg/kg, po after 3 hrs (reference value: 0.93 +/- 0.35 ml/kg); type: functional, Canis lupus familiaris, Urine

Q: What does the source list for `CCCCNc1cc(C(=O)O)cc(S(N)(=O)=O)c1Oc1ccccc1` [BUMETANIDE]?
A: Activity (Canis familiaris [1]): 0.92 milliequivalent/kg; Activity (Canis familiaris [2]): 3.5 milliequivalent/kg; Activity (Canis familiaris [3]): 0.84 milliequivalent/kg; Activity (Canis familiaris [4]): 10 mL/kg; Activity (Canis familiaris [5]): 5.7 milliequivalent/kg; Activity (Canis familiaris [6]): 26 mL/kg; Activity (Canis familiaris [7]): 2.4 milliequivalent/kg; Activity (Canis familiaris [8]): 39 mL/kg; Activity (Canis familiaris [9]): 0.44 milliequivalent/kg; Activity (Canis familiaris [10]): 4 milliequivalent/kg; Activity (Canis familiaris [11]): 1.4 milliequivalent/kg; Activity (Canis familiaris [12]): 0.27 milliequivalent/kg

Q: With `O=CNc1cc(C(=O)O)cc(OCc2ccccc2)c1C(=O)c1ccccc1` as the compound, how does the Activity (Canis familiaris [13]) read?
A: Its Activity is 9 mL/kg.

Q: What about the Activity (Canis familiaris [14]) of the same compound?
A: Its Activity is 21 mL/kg.

Q: And the Activity (Canis familiaris [15])?
A: The Activity was 18 mL/kg.

Q: And the Activity (Canis familiaris [16])?
A: The Activity was 2.6 milliequivalent/kg.

Q: And the Activity (Canis familiaris [17])?
A: The Activity was 2.1 milliequivalent/kg.

Q: And the Activity (Canis familiaris [18])?
A: Its Activity is 3.1 milliequivalent/kg.

Q: And the Activity (Canis familiaris [19])?
A: Its Activity is 4.5 milliequivalent/kg.

Q: And the Activity (Canis familiaris [20])?
A: Its Activity is 1.1 milliequivalent/kg.

Q: What about the Activity (Canis familiaris [21]) of the same compound?
A: The Activity was 4.5 milliequivalent/kg.

Q: What about the Activity (Canis familiaris [22]) of the same compound?
A: Its Activity is 0.51 milliequivalent/kg.

Q: What about the Activity (Canis familiaris [23]) of the same compound?
A: The Activity was 2.5 milliequivalent/kg.

Q: What about the Activity (Canis familiaris [24]) of the same compound?
A: Its Activity is 0.49 milliequivalent/kg.

Q: And the Activity (Canis familiaris [2])?
A: Its Activity is 1.3 milliequivalent/kg.

Q: What about the Activity (Canis familiaris [25]) of the same compound?
A: Its Activity is 3.1 milliequivalent/kg.

Q: What about the Activity (Canis familiaris [26]) of the same compound?
A: Its Activity is 0.63 milliequivalent/kg.

Q: And the Activity (Canis familiaris [27])?
A: Its Activity is 22 mL/kg.

Q: What about the Activity (Canis familiaris [6]) of the same compound?
A: Its Activity is 9 mL/kg.

Q: What about the Activity (Canis familiaris [7]) of the same compound?
A: Its Activity is 1 milliequivalent/kg.

Q: What about the Activity (Canis familiaris [28]) of the same compound?
A: Its Activity is 2.5 milliequivalent/kg.

Q: And the Activity (Canis familiaris [29])?
A: The Activity was 2.2 milliequivalent/kg.

Q: And the Activity (Canis familiaris [30])?
A: The Activity was 3.3 milliequivalent/kg.

Q: And the Activity (Canis familiaris [31])?
A: The Activity was 0.41 milliequivalent/kg.

Q: And the Activity (Canis familiaris [32])?
A: Its Activity is 3.3 milliequivalent/kg.

Q: What about the Activity (Canis familiaris [33]) of the same compound?
A: Its Activity is 1.09 milliequivalent/kg.

Q: And the Activity (Canis familiaris [34])?
A: Its Activity is 21 mL/kg.

Q: What about the Activity (Canis familiaris [35]) of the same compound?
A: Its Activity is 33 mL/kg.

Q: And the Activity (Canis familiaris [36])?
A: Its Activity is 0.49 milliequivalent/kg.

Q: What about the Activity (Canis familiaris [9]) of the same compound?
A: The Activity was 0.24 milliequivalent/kg.

Q: With `O=CNc1cc(C(=O)O)cc(SCc2ccccc2)c1C(=O)c1ccccc1` as the compound, how does the Activity (Canis familiaris [13]) read?
A: The Activity was 26 mL/kg.

Q: What about the Activity (Canis familiaris [20]) of the same compound?
A: The Activity was 2.8 milliequivalent/kg.

Q: What about the Activity (Canis familiaris [37]) of the same compound?
A: Its Activity is 0.7 milliequivalent/kg.

Q: What about the Activity (Canis familiaris [38]) of the same compound?
A: The Activity was 0.1 milliequivalent/kg.

Q: And the Activity (Canis familiaris [39])?
A: Its Activity is 0.5 milliequivalent/kg.

Q: What about the Activity (Canis familiaris [40]) of the same compound?
A: The Activity was 3.5 milliequivalent/kg.

Q: What about the Activity (Canis familiaris [41]) of the same compound?
A: Its Activity is 10 mL/kg.

Q: And the Activity (Canis familiaris [36])?
A: The Activity was 0.27 milliequivalent/kg.
